The results in this text go back to a melting point compilation (Tetko et al.; mined from patent text by program, amines drawn as free bases though some values may be those of a salt).

The structures appear in SMILES notation.

In turn, `Cc1cc(C)nc(N(C(=O)C(Cl)(Cl)Cl)c2ccccc2)n1` gave a melting point of 126 to 127 °C.

Turning to `NC1CCN(c2ncc3ncnc(Nc4ccc(F)c(Cl)c4)c3n2)C1` (stereo not drawn), the melting point lay within 174 to 176 °C.

As to `O=C(O)c1cccc(Oc2cccc(-c3nnc(N(Cc4ccc(C(F)(F)P(=O)(O)O)c(Cl)c4)c4ccc(Cl)c(Cl)c4)s3)c2)c1`, the melting point fell in the range of 178 to 180 °C.

In the case of `CS(=O)(=O)OC1=C(C(=O)O)N2C(=O)[C@@H](NC(=O)Cc3ccccc3)[C@H]2CN1` (racemic), the melting point lay within 115 to 117 °C.

`CCCCC[C@H]1CO[C@H](c2ccc(C(=O)O)cc2)OC1` displayed a melting point of 210 to 211 °C.

In turn, `CCCCc1nc2c(N)nc3ccccc3c2n1CCCCCCCCNC(=O)Nc1ccccc1` had a melting point of 153 to 155 °C.

`COc1cc2c(cc1F)C1(CO2)C(=O)Nc2ccccc21` (stereo not drawn): the melting point lay within 222 to 225 °C.

In turn, `CN1CCC(Cn2c(=O)[nH]c3ncc(-c4ccc(O)cc4)nc32)CC1` yielded a melting point of 292 to 294 °C.

Turning to `NS(=O)(=O)c1ccc(NN=C2C(=O)Nc3ccc(C(=O)NCc4ccco4)cc32)cc1`, the melting point is more than 250 °C.

`CN(CCOc1ccc(CC(C(=O)O)S(=O)(=O)c2ccccc2)cc1)c1nc2ccccc2o1` (stereo not drawn) yielded a melting point of 193 to 196 °C.

Regarding `CN(C)C(=O)NCC(C)(C)c1ccc2nc(-c3ccncc3)[nH]c2c1`, the melting point was in the range of 136 to 138 °C.

The molecule `O=C(NCCO)c1c([N+](=O)[O-])ccc(N(CCBr)CCBr)c1[N+](=O)[O-]` came in with a melting point of 94 to 97 °C.

As for `CCc1nnc2c(O)nc3cc(Cl)ccc3n12`, the melting point was more than 300 °C.

Take `COc1ccc(C(=O)Nc2ccccc2)cc1NCc1cccc(O)c1`: the melting point was in the range of 168 to 170 °C.

The molecule `CNC(=O)c1ccc(C)c(-n2c(C)cc(OCc3ccc(F)cc3CNC(=O)Nc3cc(C(C)(C)C)nn3-c3ccc(O)c(Cl)c3)c(Cl)c2=O)c1` gave a melting point of 177 to 180 °C.

Molecule `COC(=O)CCn1nnnc1C1N2C(=O)C(NC(c3ccccc3)(c3ccccc3)c3ccccc3)C2SC1(C)C` (stereo not drawn) returned a melting point of 94 to 98 °C.

As for `C#CC(O)COc1ccc(F)cc1` (stereo not drawn), the melting point fell in the range of 46 to 47 °C.

In the case of `Cc1cc(=O)[nH]nc1-c1ccc2nc(C3CC3)n(Cc3ccc(-c4ccccc4-c4nnn[nH]4)cc3)c2c1`, the melting point was determined as 225 °C.

The molecule `CCCCOC(=O)c1cn(CC)c2nc(N3CCNCC3)c(F)cc2c1=O` had a melting point of 119 to 120 °C.

In turn, `O=C(O)C=Cc1cc(Oc2c(Cl)cc(C(F)(F)F)cc2Cl)ccc1[N+](=O)[O-]` yielded a melting point of 192 °C.

`C[C@@H]1CNC[C@H](C)N1Cc1ccc(COc2cccc3c2CN(C2CCC(=O)NC2=O)C3=O)cc1` (stereo partly drawn): the melting point is 253 to 255 °C.

As to `Cn1c(=O)c(-c2ccccc2Cl)cc2cnc(NC3CCS(=O)(=O)CC3)nc21`, the melting point was in the range of 206 to 207 °C.

`CNc1ccc(F)c2c1C(=O)c1ccccc1-2`: the melting point is 139 to 144 °C.

`CCCCCCCCCCCN(O)C(=O)N(C)C` had a melting point of 54 to 55 °C.

`OCCCSc1ccc2nccn2n1` displayed a melting point of 108 to 109 °C.

The molecule `COc1ccc(C(=O)Nc2ccc(C(=O)N3CCOCC3)cc2)cc1C12CC3CC(CC(C3)C1)C2` gave a melting point of 238 to 241 °C.

`N#CCCCCC(N)=O` displayed a melting point of 63 to 65 °C.

Turning to `Cc1c(-c2ccc(F)cc2F)ncnc1C(F)F`, the melting point was in the range of 54 to 55 °C.

With `CSc1c(C#N)nn(-c2c(Cl)cc(C(F)(F)F)cc2Cl)c1N`, the melting point fell in the range of 147 to 148 °C.

`COc1ccc2c(c1OCc1ccccc1)CCN(C(C)=O)C2` registered a melting point of 94 to 95 °C.

On to `CCCn1c(=O)c2c(nc(/C=C/c3ccc(OCOC)c(OCOC)c3)n2C)n(CCC)c1=O`, for which the melting point was in the range of 172 to 173 °C.

As for `C#CCc1c(-c2ccccc2)nc(C)[nH]c1=O`, the melting point fell in the range of 220 to 225 °C.

Molecule `CCOC(=O)N1Cc2ccccc2C(Oc2cccc(C(F)(F)F)c2)C1` (stereo not drawn) came in with a melting point of 98 to 100 °C.

`CCOC(=O)c1ccc(NC(=O)CC(c2ccc(Cl)cc2)c2ccc(Cl)cc2)cc1` returned a melting point of 152 to 155 °C.

Turning to `CN(C)CCNc1c2nc3ccccc3c-2n(C)c2ccccc12`, the melting point was in the range of 162 to 164 °C.

For the molecule `c1csc(-c2nc3ccccc3nc2OC2CCC2)c1`, the melting point is 103 °C.

In the case of `CN(CC(O)c1ccc2[nH]c(=O)[nH]c2c1)C1CCC(c2ccccc2)CC1` (stereo not drawn), the melting point fell in the range of 238 to 239 °C.

`CCCCCCC(C)(C)c1cc(O)c2c(c1)OC(C)(C)[C@@H]1CC=C(NC(C)=O)C[C@@H]21` (relative stereo) gave a melting point of 186 to 188 °C.

Molecule `O=c1c2ccccc2cc(Cl)n1-c1ccc(Cl)cc1` had a melting point of 125 to 127 °C.

Molecule `CC(C)c1nccn1Cc1ccc2c(c1)Cc1c(-c3ccsc3)n[nH]c1-2` came in with a melting point of 260 to 262 °C.

`CC(=NO)c1ccc2nnn(Cc3ccc4ncccc4c3)c2n1` came in with a melting point of 259 to 261 °C.

For `N#CC(C#N)=C1N(CCCN2CCCCC2)CCN1C1CCN(Cc2ccccc2)CC1`, the melting point was in the range of 156 to 158 °C.

`C[C@@H]1N=C(c2ccccc2Cl)c2cc(N)ccc2N(C)C1=O` returned a melting point of 221 °C.

Molecule `O=C1c2ccccc2CN1C1CCN(CCC2c3ccccc3-c3ccccc32)CC1` showed a melting point of 65 to 68 °C.

For `O=C1C(=Cc2ccco2)CCc2cc(OCCc3c[nH]cn3)ccc21`, the melting point lay within 57 to 60 °C.

For the molecule `NC(=S)/C=C/c1cc([N+](=O)[O-])ccc1Cl`, the melting point lay in the range of 236 to 238 °C.

With `CCOC(=O)NC1N=C(c2ccccc2)c2ccccc2-n2c(C)nnc21` (stereo not drawn), the melting point was 198 to 202 °C.

Molecule `CC(CC(F)(F)F)C(=O)Nc1cnn(-c2cccnc2)c1` (stereo not drawn) displayed a melting point of 140 to 145 °C.

Consider `CC(C)(c1ccc(Oc2cccc3c2C(=O)NC3=O)cc1)c1ccc(Oc2cccc3c2C(=O)NC3=O)cc1`, for which the melting point was 258 to 260 °C.

Turning to `CC(C)Sc1c(C(N)=O)n(C)c2ccc(O)cc12`, the melting point is 60 to 62 °C.

With `COc1ccc2nc(Cl)c(C=NO)cc2c1`, the melting point was found to be 195 °C.

`CCCCCNC(=O)[C@H](Cc1ccc(OCC(=O)O)c(-c2cc(O)no2)c1)NC(=O)[C@H](Cc1ccccc1)NC(=O)OC(C)(C)C` had a melting point of 122 to 123 °C.

In turn, `N#Cc1nn(-c2c(Cl)cc(C(F)(F)F)cc2Cl)cc1C1CC(=O)C1(Cl)Cl` (stereo not drawn) gave a melting point of 118 to 120 °C.

For the molecule `O=C(O)C(CSc1nc2ccccc2[nH]1)CS(=O)(=O)c1ccc(-c2ccc(Cl)cc2)cc1` (stereo not drawn), the melting point is 176 to 179 °C.

`Oc1ccc(C(c2ccc(O)cc2)c2ccccc2CN2CCCc3ccccc32)cc1` gave a melting point of 160 to 163 °C.

Turning to `O=C(NCCN1CCC(O)(c2ccc(Cl)cc2)CC1)c1cccs1`, the melting point was 153 °C.

`Cc1c(-c2ccncc2)[nH]c(-c2ccncc2)c1CO` returned a melting point of 258 to 261 °C.

On to `CCCCNC(=O)Oc1ccc2oc3ccccc3c2c1`, for which the melting point lay in the range of 124 to 126 °C.

In turn, `CN(C)Cc1ncccc1OC1SCC(O)C(O)C1O` (stereo not drawn) came in with a melting point of 79 °C.

`Cc1c(NCC(C)(C)CNCC(O)COc2ccccc2)n(C)c(=O)n(C)c1=O` (stereo not drawn) gave a melting point of 111 to 112 °C.

Molecule `Cc1cc(C(=O)N(C2CCCCC2)C2CCCC2)ccc1Cn1cnc2ncccc21` came in with a melting point of 191 to 192 °C.

`Cc1[nH]c2ccccc2c1CCC(=O)N1CCC(O)(Cc2ccccc2)CC1` had a melting point of 117 to 119 °C.

On to `Cc1ccccc1-n1ccc2c(=O)[nH]c3c(C)cccc3c21`, for which the melting point was in the range of 226 to 232 °C.

`O=S(=O)(Nc1ccc(Cl)cc1C(=NOCc1ccc(Br)cc1)c1ccccc1)C(F)(F)F` gave a melting point of 55 to 56 °C.

For the molecule `Cn1c(C#N)c(-c2ccc(F)cc2)c2ncccc2c1=O`, the melting point fell in the range of 258 to 259 °C.

For the molecule `FC(F)(F)c1c[nH]cc1-c1cccc(Cl)c1Cl`, the melting point lay within 63 to 65 °C.

Molecule `O=C(c1cccc(Cl)c1)c1ccnc2ccccc12` returned a melting point of 92.7 °C.

`CC12CC(N3CCC(O)CC3)C(O)CC1CCC1C2CCC2(C)C(O)C(N3CCCC3)CC12` (stereo not drawn) gave a melting point of 188 to 190 °C.

`Cc1[nH]c(C)c2c1C(C)(C)CC2(C)C#N` (stereo not drawn) showed a melting point of 130 to 140 °C.

`CC(C)N1C(=O)N(c2ccccc2Cl)CSC1=NC(C)(C)C`: the melting point was 88 to 89 °C.

For the molecule `Cc1cc(Oc2ncc(Cl)cc2Cl)cc(C)c1N=C=NC(C)(C)C`, the melting point was in the range of 69 to 71 °C.

Turning to `O=c1[nH]nc2ccc(-c3ccc(Cl)c(Cl)c3)nn12`, the melting point was 336 to 338 °C.

The molecule `CC(C)n1c(-c2ccccc2)cc(-c2ccc(F)cc2)c1C=O` displayed a melting point of 118 to 122 °C.

The molecule `CS(=O)c1c(C2(C)NCCS2)nn(-c2c(Cl)cc(C(F)(F)F)cc2Cl)c1N` (stereo not drawn) registered a melting point of 85 °C.

Consider `Cc1cc(C(c2cc(C)sc2C)c2cc(C)sc2C)c(C)s1`, for which the melting point was in the range of 143 to 144 °C.

`Cc1nc[nH]c1CSCCNC1=Nc2ccccc2C(=O)C1` returned a melting point of 121 to 124 °C.

Regarding `O=C(CC1CCCCCC1=O)c1ccccc1` (stereo not drawn), the melting point is 42 to 44 °C.

For `O=C1CCC(N2Cc3cc(CNC(=O)Nc4cccc(Oc5ccccc5)c4)ccc3C2=O)C(=O)N1` (stereo not drawn), the melting point lay in the range of 224 to 226 °C.

For `Cc1cc(-c2nc3ccccc3c(=O)[nH]2)cc(C)c1OCCO`, the melting point was 260 to 261 °C.

With `Cc1ccc(Cn2c(=O)c3c(N4CCN(C)CC4)cc(Cl)cc3n(Cc3ccccc3)c2=O)o1`, the melting point was in the range of 132 to 136 °C.

Take `COc1cccc(-c2nc(-c3ccccn3)no2)c1`: the melting point fell in the range of 96 to 99 °C.

Regarding `CCCc1ccc2nc(COc3ccc(F)c(C(N)=O)c3F)sc2c1`, the melting point was in the range of 173 to 175 °C.

Molecule `CC(=NOCCO)c1ccc(-c2ccccc2)cc1` displayed a melting point of 128 to 130 °C.

Consider `CCCn1nc(C)c(C#N)c1N`, for which the melting point lay in the range of 104 to 105 °C.

The molecule `Cc1ccc(S(=O)(=O)C(CCl)Sc2ccc(Br)cc2)cc1` (stereo not drawn) showed a melting point of 82.5 to 84 °C.

Regarding `O=C1CCCN(C(=O)c2ccc([N+](=O)[O-])cc2Cl)c2ccccc21`, the melting point lay in the range of 140 to 143 °C.

As for `CC(C)OC(=O)C(=C1SCCS1)c1ccc(F)cc1`, the melting point was in the range of 106 to 107 °C.

Regarding `COc1ccc(-n2ccn([C@H](C)[C@@]3(c4ccc(F)cc4F)CO3)c2=O)cc1`, the melting point fell in the range of 150 to 151 °C.
